Values quoted from earlier work as cited in US7195778B2, “Drug delivery system for zero order, zero order-biphasic, ascending or descending drug delivery” (Teva Pharmaceutical Industries Ltd., priority 2001, dated 2007).
Where a name gives a salt, the structure may show the parent alone. Read-outs that look alike come from different tables or passages of the source.

In the case of `COC(=O)C(c1ccccc1)C1CCCCN1` (stereo not shown) [methylphenidate HCl], the drug excreted (adults) is given as 80%, the drug excreted (children) is given as 67% and the time to peak (children, immediate release) is given as 1.9 h. The “time to peak, range” value (children, immediate release) was 0.3 to 4.4 h, the primary adverse events (chronic dosing) was “nervousness, insomnia and appetite suppression” and the pharmacokinetic half-life (immediate release) was 2 to 3 h. The “AD/HD patients responding positively” value (reports) was 70–90%.
